Read-outs that look alike come from different tables or passages of the source.

The conditions of series [1]: for Pe: pig, PAMPA. A general note: PAMPA measures passive passage across an artificial lipid membrane.
Another series has as its target T1, AChE (Rattus norvegicus, UniProt P37136).
T1 sequence (P37136 32-614): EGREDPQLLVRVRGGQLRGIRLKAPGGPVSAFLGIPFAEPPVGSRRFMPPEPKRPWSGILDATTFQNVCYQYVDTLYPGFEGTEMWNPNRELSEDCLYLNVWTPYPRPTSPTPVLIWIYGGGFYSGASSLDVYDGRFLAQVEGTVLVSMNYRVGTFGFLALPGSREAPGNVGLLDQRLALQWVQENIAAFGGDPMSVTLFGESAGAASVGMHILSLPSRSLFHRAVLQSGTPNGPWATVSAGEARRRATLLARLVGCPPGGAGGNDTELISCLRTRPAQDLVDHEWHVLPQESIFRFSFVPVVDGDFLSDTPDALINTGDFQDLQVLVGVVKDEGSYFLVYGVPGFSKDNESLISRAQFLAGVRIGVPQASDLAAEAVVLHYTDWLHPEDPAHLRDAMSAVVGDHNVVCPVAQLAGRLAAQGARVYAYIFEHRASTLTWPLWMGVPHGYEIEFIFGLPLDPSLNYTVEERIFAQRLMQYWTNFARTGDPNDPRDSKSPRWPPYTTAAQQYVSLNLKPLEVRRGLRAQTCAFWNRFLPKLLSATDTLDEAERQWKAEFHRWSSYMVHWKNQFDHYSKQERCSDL
The experiment in a line: biochemical. To be noted: for inhibition at 1 µM: tested at 1 μM, rat hippocampal homogenate, read-out: AChE Inhibition (%) ± SEM. The method, then: Male Wistar rats weighing 230–250 g were used. AChE activity was assessed using a colorimetric reported method with minor modifications. Hippocampal tissue was homogenized in 39 volumes of 75 mM sodium phosphate buffer (pH 7.4). A mixture of 2 mL containing the compounds assessed, acetylthiocholine iodide, and 50 μL tissue homogenate was incubated for 8 min. […] The extent of color production was measured spectrophometrically at 420 nm using Ultospec 3000 (Pharmacia Biotech, Piscataway, NJ, USA). All samples were assayed in triplicate. Results were expressed as percentages of control values.
Different concentrations of the compounds were tested for their ability to inhibit AChE activity.

Series [2] deals with K+-evoked [3H]ACh efflux in rat hippocampal slices. Put plainly: In vitro ACh release, K+-evoked [3H]ACh efflux. The class given is cell-based.
Method: Male Wistar rats weighing 230–250 g were used. K^+-evoked [^3H]ACh efflux was measured as previously described [39]. Briefly, the hippocampus was removed and dissected, cut sagittally into 500 µm slices using a McIlwain tissue chopper (The Mickle Laboratory Engineering Co. Ltd., Dorking, UK). […] Fractions were collected at 3-min intervals for a total of 60 min. At 12 min (S1) and 45 min (S2) after equilibration, the slices were depolarized by changing the superfusion fluid during 6 min to a solution containing 20 mM KCl. Drugs were added 15 min before S2. Tritium content was assayed by liquid scintillation spectroscopy. S1 and S2 were calculated as K+-stimulated tritium increases over basal efflux. Results were expressed as the S2/S1 ratio.
The next series in a line: in vitro. To be noted: PAMPA.

For `O=C(NC(c1ccccc1)c1ccccc1)NS(=O)(=O)c1ccc(OCCCN2CCCC2)cc1` [Compound 7], the “PAMPA-BBB Classification” value in series [1] is reported as “CNS − (key: CNS +/−: BBB permeation uncertain: Pe (10^−6 cm/s) from 4.0 to 2.0; CNS −: low BBB permeation predicted: Pe (10^−6 cm/s < 2.0)”. The Pe in series [1] (20 h, 500 µg/mL) came to 0.47. Also, on AChE (0.01–10 µM, in vitro), the “AChE activity inhibition (in words)” value is listed as “significantly inhibit AChE activity in a concentration-dependent manner”. The IC50 (in general, the concentration at which inhibition is half-maximal) at AChE (estimated from non-linear fitted dose-response curves, 0.01–10 µM) was above 10 µM. In addition, the inhibition (usually the percentage by which the read-out fell short of the control) at 1 µM at AChE is above 37%. For the same compound, the “K+-evoked [3H]ACh efflux” value in series [2] was “able to increase ACh release in vitro”. Also, the Papp (as a rule, a coefficient for how fast a substance crosses the barrier) at 20 h, 500 µg/mL in the series “in vitro” was found to be 0.47 ± 0.06 ×10⁻⁶ cm/s.

On to `CN(C)c1ccc(NC(=O)NS(=O)(=O)c2ccc(OCCCN3CCCC3)cc2)cc1` [Compound 6], for which, in series [1], the “PAMPA-BBB Classification” value is “CNS − (key: CNS +/−: BBB permeation uncertain: Pe (10^−6 cm/s) from 4.0 to 2.0; CNS −: low BBB permeation predicted: Pe (10^−6 cm/s < 2.0)” and the Pe worked out at 0.32. Moreover, the inhibition at 1 µM on AChE came to 29.9 ± 3.63%. In addition, the Papp in “in vitro” is 0.32 ± 0.01 ×10⁻⁶ cm/s.

Regarding `NS(=O)(=O)c1ccc(OCCCN2CCOCC2)cc1` [Compound 3], the inhibition at 1 µM at AChE was below 5%.

Take `O=C(Nc1cccc2ccccc12)NS(=O)(=O)c1ccc(OCCCN2CCCC2)cc1` [Compound 5]: the inhibition at 1 µM at AChE was found to be 25.2 ± 7.7%.

These data come from paper PMC10815131, “Novel Pitolisant-Derived Sulfonyl Compounds for Alzheimer Disease” (International Journal of Molecular Sciences, 2024).
